Measurements taken from patent US12109294B2, “Oily moisturizer and topical skin composition containing same” (The Nisshin OilliO Group, Ltd., priority 2018, dated 2024).

System: skin stratum corneum (forearm)
Assay: Evaluation test of moisture retention effect upon single application of esterified product (stratum corneum moisture content, SKICON-200)
Format: in vivo, human
Text: The moisture content of the stratum corneum can be investigated using the electrical conductivity (μS) of the stratum corneum. The electrical conductivity (μS) of the stratum corneum is dependent on the water content of the stratum corneum, and the greater the moisture content of the stratum corneum, the larger the electrical conductivity (μS) of the stratum corneum becomes. The electrical conductivity (μS) of the stratum corneum can be measured by a constant-pressure sensor probe contact high-frequency conductance exchange method. Specifically, the electrical conductivity (μS) of the stratum corneum can be measured by using a stratum corneum moisture content measuring device based on the above measurement method, such as a stratum comeum moisture content measuring device “SKICON-200” manufactured by IBS Co., Ltd.
After maintaining the state with the oily moisturizer applied to the skin for a certain period, for example 30 to 90 minutes, the oily moisturizer is removed from the skin surface. […] Using the obtained values for the electrical conductivity (uS) of the stratum corneum before and after application of the oily moisturizer, the moisture retention effect value is calculated and the moisture retention effect is evaluated. […]
Subsequently, 40 μL of the test sample being evaluated was applied uniformly to the square measurement region of the forearm. […]

SMILES: OCC(O)CO [glycerol]
- Increase in the electrical conductivity that corresponds with the moisture retention effect value (60 minutes after application, still applied to the skin surface, prior to removal using water): 477 μS
- Moisture retention effect value (single application, removal with cotton swab immersed in water rather than hexane): 8 μS
